Several values for one entry are separate records, joined by “and”; a condition that tells them apart may be missing. Identical values can stand only once.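 Where inhibition never reached the appropriate level, the endpoint shown equals the highest concentration tested. Otherwise, values were interpolated linearly from a five-concentration, 48-hour dose response in 96-well plates. GI50 = concentration required for 50% inhibition of growth. At the TGI there is no net growth.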 A value given as a limit tells only on which side of the number the result lay.

One assay concerns NCI-H23 lung. Description: inhibition of tumour cell growth, NCI panel, 48 h.
Molecule `O=c1nc(-c2ccccc2)c2c3c(cccn13)CCC2` displayed a TGI of more than 100 µM.

`COc1ccc([C@H]2CC(=O)N3CCCC3N2)cc1` (stereo not given in full): the TGI is more than 100 µM.

Regarding `O=C(c1ccccc1)c1c(CC(O)c2cccnc2)n(C(=O)c2ccccc2)c2ccccc12` (stereo not given), the TGI was 36.5 µM.

`C=C(C)C1CC2C(C)=C(OC(C)=O)C1n1c(=O)c3cc4ccccc4cc3c(=O)n12` (stereo not given) showed a TGI of more than 100 µM.

The molecule `O=C(CCc1nc(=S)[nH][nH]1)NC12CC3CC(CC(C3)C1)C2` yielded a TGI of more than 100 µM.

For the molecule `CSc1nc2c(c(O)c(C)c(=O)n2C2OC(COC(C)=O)C(OC(C)=O)C(OC(C)=O)C2OC(C)=O)c(=O)n1C` (stereo not given), the TGI was more than 100 µM.

In turn, `Cc1nc2c(n1CC(C)(C)C)C(=O)c1ccccc1C2=O` registered a TGI of more than 100 µM.

In a further assay the test system is OVCAR-5 ovarian. Description: inhibition of tumour cell growth, NCI panel, 48 h.
Molecule `COc1ccc(C2C(Cl)C(=O)N2n2cnc3ccccc3c2=O)cc1OC` (stereo not given) yielded a TGI of more than 100 µM.

The molecule `Nc1nc2c(ncn2Cc2ccccc2CCO)c(=O)[nH]1` showed a TGI of more than 100 µM.

As to `CCC1(Br)C(=O)NC(=O)N(C2CC(O)C(CO)O2)C1N=[N+]=[N-]` (stereo not given), the TGI is more than 100 µM.

`CC(C)c1ccc2nc3ccc(C(=O)NCCN(C)C)cn3c(=O)c2c1` returned a TGI of 33.2 µM.

For the molecule `CC12CC3(C)CC(C)(C1)CC(N=[N+]=[N-])(C2)C3`, the TGI was more than 100 µM.

`N=C(N)SCc1cn2ccccc2n1`: the TGI was more than 100 µM.

Turning to `Clc1ccc([O][In]([O]c2ccc(Cl)cn2)[O]c2ccc(Cl)cn2)nc1`, the GI50 was more than 100 µM and the TGI is more than 100 µM.

As for `Fc1cccc(Cl)c1C1SCc2nc3ccccc3n21` (stereo not given), the TGI is more than 100 µM.

For the molecule `COc1cc2nncc(Sc3cnnc4ccccc34)c2cc1OC`, the TGI was 64.6 µM.

On to `COC(=O)C1=CCON(c2ccccc2)C1c1ccccc1` (stereo not given), for which the TGI is more than 100 µM.

Regarding `Cc1cc(O)c2c(c1)C(O)(c1ccc3c(c1O)C(=O)c1c(O)cc(C)cc1C3(O)C1OC(CO)C(O)C(O)C1O)c1cccc(O)c1C2=O` (stereo not given), the TGI amounted to 32.3 µM.

Turning to `COC(=O)c1nc(NN)[nH]c(=O)c1CCCCCc1c(C(=O)OC)[nH]c(NN)cc1=O`, the TGI was more than 100 µM.

For the molecule `CC1(C)C(=O)C(O)=CC2C1=CCC1C2(C)C(=O)CC2(C)C(C(C)(O)C(=O)CC(O)C(C)(C)O)C(O)CC12C` (stereo not given), the TGI was more than 100 µM.

`CCc1ccccc1NC(=O)C(=O)C(C(=O)c1ccc(OC)cc1)c1ccc(OC)cc1` (stereo not given) came in with a TGI of more than 100 µM.

`COc1ccc(C(=O)N2c3ccccc3Sc3ccccc32)c(F)c1`: the GI50 was 3.66 µM and the TGI is more than 100 µM.

Molecule `C/C(=N/N(C=O)C[n+]1ccccc1)C(CN(CC(C)C)CC(C)C)C(=O)Nc1ccc(C)cc1C` (stereo not given) came in with a TGI of more than 100 µM.

Consider `COc1cc(C2c3cc4c(cc3[C@@H](Nc3ccc(N(C)C)cc3)[C@H]3COC(=O)C23)OCO4)cc(OC)c1O` (stereo not given in full), for which the GI50 is 1.96 µM; the TGI was 6.21 µM and 16.2 µM.

For `O=c1nc(-c2ccccc2)c2c3c(cccn13)CCC2`, the TGI is more than 100 µM.

Molecule `COc1ccc([C@H]2CC(=O)N3CCCC3N2)cc1` (stereo not given in full) had a TGI of more than 100 µM.

In turn, `O=C(c1ccccc1)c1c(CC(O)c2cccnc2)n(C(=O)c2ccccc2)c2ccccc12` (stereo not given) returned a TGI of 37.6 µM.

For the molecule `C=C(C)C1CC2C(C)=C(OC(C)=O)C1n1c(=O)c3cc4ccccc4cc3c(=O)n12` (stereo not given), the TGI is more than 100 µM.

`O=C(CCc1nc(=S)[nH][nH]1)NC12CC3CC(CC(C3)C1)C2` displayed a TGI of more than 100 µM.

For the molecule `CSc1nc2c(c(O)c(C)c(=O)n2C2OC(COC(C)=O)C(OC(C)=O)C(OC(C)=O)C2OC(C)=O)c(=O)n1C` (stereo not given), the TGI is more than 100 µM.

With `COc1ccc(C(C2=C(C)C(=O)c3ccccc3C2=O)c2ccc(C(C)C)cc(=O)c2O)cc1` (stereo not given), the TGI amounted to 7.53 µM.

For a further assay, the system named is SNB-19 CNS. As to the kind of experiment: inhibition of tumour cell growth, NCI panel, 48 h.
For `O=C1c2ccccc2N2OC3(N4CCCC4)CCCC3C12c1ccccc1` (stereo not given), the TGI was more than 100 µM.

For `COc1ccc(C2C(Cl)C(=O)N2n2cnc3ccccc3c2=O)cc1OC` (stereo not given), the TGI is more than 100 µM.

As for `Nc1nc2c(ncn2Cc2ccccc2CCO)c(=O)[nH]1`, the TGI is more than 100 µM.

Molecule `CCC1(Br)C(=O)NC(=O)N(C2CC(O)C(CO)O2)C1N=[N+]=[N-]` (stereo not given) displayed a TGI of more than 100 µM.

Molecule `CC(C)c1ccc2nc3ccc(C(=O)NCCN(C)C)cn3c(=O)c2c1` displayed a TGI of more than 100 µM.

In turn, `O=[N+]([O-])c1ccc(N=Nc2c(O)[nH]c3ccc([N+](=O)[O-])cc23)cc1` registered a TGI of 40.5 µM.

Molecule `CC12CC3(C)CC(C)(C1)CC(N=[N+]=[N-])(C2)C3` came in with a TGI of more than 100 µM.

As to `N=C(N)SCc1cn2ccccc2n1`, the TGI was more than 100 µM.

In the case of `Clc1ccc([O][In]([O]c2ccc(Cl)cn2)[O]c2ccc(Cl)cn2)nc1`, the GI50 is more than 100 µM and the TGI was more than 100 µM.

Consider `Fc1cccc(Cl)c1C1SCc2nc3ccccc3n21` (stereo not given), for which the TGI is more than 100 µM.

`COc1cc2nncc(Sc3cnnc4ccccc34)c2cc1OC` returned a TGI of 42.3 µM.

Take `COC(=O)C1=CCON(c2ccccc2)C1c1ccccc1` (stereo not given): the TGI was more than 100 µM.

Molecule `CC(=O)N(CCN)CCN` yielded a TGI of more than 10 µM.

As for `Cc1cc(O)c2c(c1)C(O)(c1ccc3c(c1O)C(=O)c1c(O)cc(C)cc1C3(O)C1OC(CO)C(O)C(O)C1O)c1cccc(O)c1C2=O` (stereo not given), the TGI was 30.2 µM.

For `COC(=O)c1nc(NN)[nH]c(=O)c1CCCCCc1c(C(=O)OC)[nH]c(NN)cc1=O`, the TGI was more than 100 µM.

On to `CC1(C)C(=O)C(O)=CC2C1=CCC1C2(C)C(=O)CC2(C)C(C(C)(O)C(=O)CC(O)C(C)(C)O)C(O)CC12C` (stereo not given), for which the TGI was 12.7 µM.

Take `CCc1ccccc1NC(=O)C(=O)C(C(=O)c1ccc(OC)cc1)c1ccc(OC)cc1` (stereo not given): the TGI was more than 100 µM.

As to `COc1ccc(C(=O)N2c3ccccc3Sc3ccccc32)c(F)c1`, the GI50 was 0.571 µM and the TGI was more than 100 µM.

In the case of `C/C(=N/N(C=O)C[n+]1ccccc1)C(CN(CC(C)C)CC(C)C)C(=O)Nc1ccc(C)cc1C` (stereo not given), the TGI was more than 100 µM.

For `COc1cc(C2c3cc4c(cc3[C@@H](Nc3ccc(N(C)C)cc3)[C@H]3COC(=O)C23)OCO4)cc(OC)c1O` (stereo not given in full), the GI50 is 0.441 µM; the TGI was 11.2 µM and 11.8 µM.

As for `O=c1nc(-c2ccccc2)c2c3c(cccn13)CCC2`, the TGI is more than 100 µM.

Consider `COc1ccc([C@H]2CC(=O)N3CCCC3N2)cc1` (stereo not given in full), for which the TGI was more than 100 µM.

Take `O=C(c1ccccc1)c1c(CC(O)c2cccnc2)n(C(=O)c2ccccc2)c2ccccc12` (stereo not given): the TGI amounted to 63.1 µM.

For the molecule `C=C(C)C1CC2C(C)=C(OC(C)=O)C1n1c(=O)c3cc4ccccc4cc3c(=O)n12` (stereo not given), the TGI is more than 100 µM.

Molecule `O=C(CCc1nc(=S)[nH][nH]1)NC12CC3CC(CC(C3)C1)C2` displayed a TGI of more than 100 µM.

With `CSc1nc2c(c(O)c(C)c(=O)n2C2OC(COC(C)=O)C(OC(C)=O)C(OC(C)=O)C2OC(C)=O)c(=O)n1C` (stereo not given), the TGI is more than 100 µM.

Take `Cc1nc2c(n1CC(C)(C)C)C(=O)c1ccccc1C2=O`: the TGI is more than 100 µM.

The molecule `CC(C)N(C(=O)C12C3C4C1C1C2C3C41C(O)C(C)(C)C)C(C)C` (stereo not given) had a TGI of more than 50 µM.

The values above are taken from PubChem BioAssay (NCI).
